Converted amounts (≈) assume the structure as drawn. Where two headings read alike, the source gives them in different places. No end group written: not given here.
What was measured:
[1] = test system: human histiocytic lymphoma cell line U937; experiment: Long-term growth inhibition, minimum toxic concentration (MTC)
Procedure, shortened: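 U937 cells (5·10^4/ml final, RPMI 1640 + 2 mM glutamine + 10% FCS) exposed to peptides at 0.25–64 µM for 2 h at 37 °C, 5% CO2, then cultured at least four further days. MTC taken as the lowest peptide concentration giving complete growth suppression after four days.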

E. coli DH5α = conditions: MHB, 18 hours at 37° C.; mean of four test series
Procedure, shortened: (§1)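 Broth microdilution MIC per CLSI/EUCAST, adapted for cationic peptides, in Mueller-Hinton broth. Peptides at final 64 to 0.25 μM (2-fold series) with 5·10^4 bacteria/ml, 18 h at 37° C with shaking; growth read as absorbance at 600 nm.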

Staphylococcus xylosus = conditions: MHB, 18 hours at 37° C.; mean of four test series
Procedure, shortened: as §1

[2] = test system: human histiocytic lymphoma cell line U937; experiment: Cytotoxicity, direct membrane damage (CytoTox 96), LD50; assay type: cell-based; conditions: U937, two hours at 37° C., 0.25-64 μM
Procedure, shortened: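 Membrane damage in peptide-treated U937 cells measured as LDH release in culture supernatant (30 min substrate, room temperature, dark; absorbance 490 nm). Negative-control signal subtracted and normalized to permeabilization control. LD50 (μM) from sigmoidal fit of relative cytotoxicity (%) versus peptide concentration at 50%.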

[3] = U937, complete suppression of cell growth after four days

Q: KRKRKILILIKRK-OH [N1] was tested. Which “Toxicity MTC (minimum toxic concentration)” value [1] did it give?
A: 32 µM

Q: And the “MIC E. coli” value (E. coli DH5α)?
A: 8 µM

Q: What about the “MIC S. xylosus” value (Staphylococcus xylosus) of the same compound?
A: 0.5 µM

Q: What does the source list for KILILIKRK-OH [N4]?
A: Toxicity MTC (minimum toxic concentration) [1]: >64 µM; MIC E. coli (E. coli DH5α): 32 µM; MIC S. xylosus (Staphylococcus xylosus): 16 µM

Q: What does the source list for ILPWKWPWWPWRR [Indolicidin]?
A: Toxicity MTC (minimum toxic concentration) [1, 3]: >64 µM; MIC E. coli (E. coli DH5α): 4 µM; MIC S. xylosus (Staphylococcus xylosus): 32 µM; Toxicity LD50 [2]: >64 µM

Q: Which “Toxicity MTC (minimum toxic concentration)” value [1] does the source give for “MPRRRRSSSRPVRRRRRPRVSRRRRRRGGRRR (Protamine) [protamine from salmon, grade IV, histone-free (Sigma-Aldrich)]” here?
A: 16 µM

Q: What about the “MIC E. coli” value (E. coli DH5α) of the same compound?
A: 8 µM

Q: What about the “MIC S. xylosus” value (Staphylococcus xylosus) of the same compound?
A: 0.5 µM

Q: What about the “Toxicity LD50” value [2] of the same compound?
A: >64 µM

Q: What does the source list for CC[C@H](C)[C@H](NC(=O)CN)C(=O)NCC(=O)N[C@@H](C)C(=O)N[C@H](C(=O)N[C@@H](CC(C)C)C(=O)N[C@@H](CCCCN)C(=O)N[C@H](C(=O)N[C@@H](CC(C)C)C(=O)N[C@H](C(=O)N[C@H](C(=O)NCC(=O)N[C@@H](CC(C)C)C(=O)N1CCC[C@H]1C(=O)N[C@@H](C)C(=O)N[C@@H](CC(C)C)C(=O)N[C@H](C(=O)N[C@@H](CO)C(=O)N[C@@H](Cc1c[nH]c2ccccc12)C(=O)N[C@H](C(=O)N[C@@H](CCCCN)C(=O)N[C@@H](CCCNC(=N)N)C(=O)N[C@@H](CCCCN)C(=O)N[C@@H](CCCNC(=N)N)C(=O)N[C@@H](CCC(N)=O)C(=O)N[C@@H](CCC(N)=O)C(N)=O)[C@@H](C)CC)[C@@H](C)CC)[C@@H](C)O)[C@@H](C)O)C(C)C)C(C)C [Melittin]?
A: Toxicity MTC (minimum toxic concentration) [1, 3]: 2.0 µM; MIC E. coli (E. coli DH5α): 8 µM (≈ 22.8 µg/mL); MIC S. xylosus (Staphylococcus xylosus): 2 µM (≈ 5.69 µg/mL); Toxicity LD50 [2]: 1.4 µM

From patent publication US10556926B2, “Synthetic artificial peptides with antimicrobial effect” (priority 2014, dated 2020)
